From US20130324502A1, “NOVEL FORMULATIONS FOR DERMAL, TRANSDERMAL AND MUCOSAL USE 1” (MOBERG PHARMA AB, priority 2011, published 2013)

Test: Franz cell penetration study through pig skin stratum corneum/epidermis membrane
Type: in vitro ADME
Settings: for Cumulative penetration of spironolactone through stratum corneum/epidermis: formulation of Table 6a, receptor phosphate buffer pH 7.4
Method: The functionality of the formulation was tested by evaporating the anti-solvent ethyl acetate. […] This formulation was used for penetration testing. When applied to the skin, spironolactone is intended to penetrate through the statum corneum into epidermis/dermis and not through the skin.
In this set-up, dermis was removed from full thickness pig skin and the remaining membrane consisting of stratum corneum and epidermis was mounted in the cell. The receptor fluid was phosphate buffer at pH 7.4 and 32° C. An amount of the experimental formulation corresponding to 50 mg of product and 1.5 mg of active substance after evaporation was applied. […] The experiment was performed at 34° C. and analysis of spironolactone was performed by HPLC.

[1] = after 6 hours, 1.5 mg of active substance applied

SMILES: CC(=O)S[C@@H]1CC2=CC(=O)CC[C@]2(C)[C@H]2CC[C@@]3(C)[C@@H](CC[C@@]34CCC(=O)O4)[C@H]12 [Spironolactone]
- amount of spironolactone passed the skin membrane [1]: 0.5 mg
- spironolactone passed the skin membrane, % of the dose [1]: 33%
- Cumulative penetration of spironolactone through stratum corneum/epidermis (time 0 h): 0 μg/cm^2
- Cumulative penetration of spironolactone through stratum corneum/epidermis (time 2 h): 281 μg/cm^2
- Cumulative penetration of spironolactone through stratum corneum/epidermis (time 4 h): 381 μg/cm^2
- Cumulative penetration of spironolactone through stratum corneum/epidermis (time 6 h): 440 μg/cm^2
- Cumulative penetration of spironolactone through stratum corneum/epidermis (time 24 h): 466 μg/cm^2
